According to the kinase profiling compilation of Christmann-Franck et al. (2016):

Columns and labels:
Test in all cases: KINOMEscan competition binding
Conditions in all cases: compound 10.0 µM
[1] = molecular target: PHKG1 (human) (UniProt Q16816)
[2] = molecular target: CSNK1G2 (human) (UniProt P78368)
[3] = molecular target: RPS6KA4 KD1 (human) (UniProt O75676)
[4] = molecular target: CHEK1 (human) (UniProt O14757)
[5] = molecular target: MAPK11 (human) (UniProt Q15759)
[6] = molecular target: FYN (human) (UniProt P06241)
[7] = molecular target: FES (human) (UniProt P07332)
[8] = molecular target: STK4 (human) (UniProt Q13043)
[9] = molecular target: CDK15 (human) (UniProt Q96Q40)
[10] = molecular target: LCK (human) (UniProt P06239)
[11] = molecular target: NUAK1 (human) (UniProt O60285)
[12] = molecular target: BMX (human) (UniProt P51813)
[13] = molecular target: MAP2K6 (human) (UniProt P52564)
[14] = molecular target: STK32C (human) (UniProt Q86UX6)
[15] = molecular target: SRMS (human) (UniProt Q9H3Y6)
[16] = molecular target: CAMK1G (human) (UniProt Q96NX5)
[17] = molecular target: SIK2 (human) (UniProt Q9H0K1)
[18] = molecular target: CDK8 (human) (UniProt P49336)
[19] = molecular target: NTRK3 (human) (UniProt Q16288)
[20] = molecular target: CDK14 (human) (UniProt O94921)
[21] = molecular target: PLK1 (human) (UniProt P53350)
[22] = molecular target: PIK3CB (human) (UniProt P42338)
[23] = molecular target: RIPK1 (human) (UniProt Q13546)
[24] = molecular target: TESK1 (human) (UniProt Q15569)
[25] = molecular target: PRKCQ (human) (UniProt Q04759)
[26] = molecular target: TGFBR1 (human) (UniProt P36897)
[27] = molecular target: SRPK1 (human) (UniProt Q96SB4)
[28] = molecular target: MAP3K3 (human) (UniProt Q99759)
[29] = molecular target: FLT1 (human) (UniProt P17948)
[30] = molecular target: PTK6 (human) (UniProt Q13882)
[31] = molecular target: ACVRL1 (human) (UniProt P37023)
[32] = molecular target: PRKACB (human) (UniProt P22694)
[33] = molecular target: ABL1 (human) (UniProt P00519)
[34] = molecular target: MERTK (human) (UniProt Q12866)
[35] = molecular target: ERBB4 (human) (UniProt Q15303)
[36] = molecular target: LIMK1 (human) (UniProt P53667)
[37] = molecular target: CSK (human) (UniProt P41240)
[38] = molecular target: CDK2 (human) (UniProt P24941)
[39] = molecular target: MAP3K4 (human) (UniProt Q9Y6R4)
[40] = molecular target: LTK (human) (UniProt P29376)
[41] = molecular target: PRKCE (human) (UniProt Q02156)
[42] = molecular target: RPS6KA1 KD1 (human) (UniProt Q15418)

Chain of RIPK1 (human) (Q13546 whole entry, looked up): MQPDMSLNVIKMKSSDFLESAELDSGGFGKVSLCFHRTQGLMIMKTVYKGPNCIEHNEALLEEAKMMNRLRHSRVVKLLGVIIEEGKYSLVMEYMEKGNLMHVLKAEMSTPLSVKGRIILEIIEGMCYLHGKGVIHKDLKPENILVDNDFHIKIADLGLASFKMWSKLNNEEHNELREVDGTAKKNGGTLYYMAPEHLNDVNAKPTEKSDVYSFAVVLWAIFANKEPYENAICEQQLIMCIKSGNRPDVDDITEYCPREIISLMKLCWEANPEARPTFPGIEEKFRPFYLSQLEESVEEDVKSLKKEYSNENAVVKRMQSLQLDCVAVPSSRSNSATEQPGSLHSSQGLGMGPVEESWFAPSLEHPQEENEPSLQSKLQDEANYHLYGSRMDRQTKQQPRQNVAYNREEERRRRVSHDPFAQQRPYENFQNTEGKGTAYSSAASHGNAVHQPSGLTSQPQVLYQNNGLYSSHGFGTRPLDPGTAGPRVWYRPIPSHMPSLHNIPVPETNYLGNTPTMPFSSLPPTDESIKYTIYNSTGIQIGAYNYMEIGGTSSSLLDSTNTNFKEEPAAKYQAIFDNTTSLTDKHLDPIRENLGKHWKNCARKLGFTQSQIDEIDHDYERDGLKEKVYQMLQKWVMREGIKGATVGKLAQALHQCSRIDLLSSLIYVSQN
Chain of ABL1 (human) (P00519 whole entry, looked up): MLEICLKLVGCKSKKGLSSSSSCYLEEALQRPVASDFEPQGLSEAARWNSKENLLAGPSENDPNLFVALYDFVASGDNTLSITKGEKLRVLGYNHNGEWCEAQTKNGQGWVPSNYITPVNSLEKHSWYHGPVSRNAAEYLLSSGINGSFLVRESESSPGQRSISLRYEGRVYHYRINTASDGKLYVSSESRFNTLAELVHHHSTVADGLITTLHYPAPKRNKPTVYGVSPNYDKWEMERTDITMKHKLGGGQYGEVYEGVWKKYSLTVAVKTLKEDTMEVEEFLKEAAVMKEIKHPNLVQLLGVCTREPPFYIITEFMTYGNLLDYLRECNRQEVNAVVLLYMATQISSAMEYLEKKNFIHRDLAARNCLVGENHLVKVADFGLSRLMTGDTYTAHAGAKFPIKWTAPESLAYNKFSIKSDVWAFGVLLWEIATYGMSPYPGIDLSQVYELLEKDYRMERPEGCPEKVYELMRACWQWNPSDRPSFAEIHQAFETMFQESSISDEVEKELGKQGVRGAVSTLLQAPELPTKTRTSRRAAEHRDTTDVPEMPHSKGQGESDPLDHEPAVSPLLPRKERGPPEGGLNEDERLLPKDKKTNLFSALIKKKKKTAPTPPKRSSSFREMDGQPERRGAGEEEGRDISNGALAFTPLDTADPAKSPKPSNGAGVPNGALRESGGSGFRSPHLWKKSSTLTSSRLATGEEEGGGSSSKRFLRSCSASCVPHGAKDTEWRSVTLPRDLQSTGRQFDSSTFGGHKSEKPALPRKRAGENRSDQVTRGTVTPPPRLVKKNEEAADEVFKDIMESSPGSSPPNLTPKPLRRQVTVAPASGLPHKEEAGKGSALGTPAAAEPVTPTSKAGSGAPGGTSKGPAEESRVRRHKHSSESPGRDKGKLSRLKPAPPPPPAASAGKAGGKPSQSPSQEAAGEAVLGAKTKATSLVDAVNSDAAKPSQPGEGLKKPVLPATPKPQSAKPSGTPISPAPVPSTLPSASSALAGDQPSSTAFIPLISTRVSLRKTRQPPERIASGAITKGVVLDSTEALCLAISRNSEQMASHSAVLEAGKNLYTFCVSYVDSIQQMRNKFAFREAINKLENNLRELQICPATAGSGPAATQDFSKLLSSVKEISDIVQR
Chain of MAP3K3 (human) (Q99759 whole entry, looked up): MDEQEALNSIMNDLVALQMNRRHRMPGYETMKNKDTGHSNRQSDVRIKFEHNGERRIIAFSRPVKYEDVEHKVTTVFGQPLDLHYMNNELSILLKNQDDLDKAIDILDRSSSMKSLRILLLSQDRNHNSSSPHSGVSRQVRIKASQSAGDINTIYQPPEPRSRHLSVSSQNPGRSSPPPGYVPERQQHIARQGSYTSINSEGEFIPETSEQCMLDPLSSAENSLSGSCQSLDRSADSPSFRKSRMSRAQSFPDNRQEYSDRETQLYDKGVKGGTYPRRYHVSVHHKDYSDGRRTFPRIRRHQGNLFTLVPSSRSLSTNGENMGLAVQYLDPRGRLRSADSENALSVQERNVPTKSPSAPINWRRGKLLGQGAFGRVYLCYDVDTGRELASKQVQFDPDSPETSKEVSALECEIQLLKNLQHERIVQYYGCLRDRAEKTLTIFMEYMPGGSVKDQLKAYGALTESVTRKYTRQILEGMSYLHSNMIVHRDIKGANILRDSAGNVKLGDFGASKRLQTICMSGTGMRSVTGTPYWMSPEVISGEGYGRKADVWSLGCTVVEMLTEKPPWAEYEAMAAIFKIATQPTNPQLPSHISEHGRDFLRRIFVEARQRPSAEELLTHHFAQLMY
Chain of PRKCQ (human) (Q04759 whole entry, looked up): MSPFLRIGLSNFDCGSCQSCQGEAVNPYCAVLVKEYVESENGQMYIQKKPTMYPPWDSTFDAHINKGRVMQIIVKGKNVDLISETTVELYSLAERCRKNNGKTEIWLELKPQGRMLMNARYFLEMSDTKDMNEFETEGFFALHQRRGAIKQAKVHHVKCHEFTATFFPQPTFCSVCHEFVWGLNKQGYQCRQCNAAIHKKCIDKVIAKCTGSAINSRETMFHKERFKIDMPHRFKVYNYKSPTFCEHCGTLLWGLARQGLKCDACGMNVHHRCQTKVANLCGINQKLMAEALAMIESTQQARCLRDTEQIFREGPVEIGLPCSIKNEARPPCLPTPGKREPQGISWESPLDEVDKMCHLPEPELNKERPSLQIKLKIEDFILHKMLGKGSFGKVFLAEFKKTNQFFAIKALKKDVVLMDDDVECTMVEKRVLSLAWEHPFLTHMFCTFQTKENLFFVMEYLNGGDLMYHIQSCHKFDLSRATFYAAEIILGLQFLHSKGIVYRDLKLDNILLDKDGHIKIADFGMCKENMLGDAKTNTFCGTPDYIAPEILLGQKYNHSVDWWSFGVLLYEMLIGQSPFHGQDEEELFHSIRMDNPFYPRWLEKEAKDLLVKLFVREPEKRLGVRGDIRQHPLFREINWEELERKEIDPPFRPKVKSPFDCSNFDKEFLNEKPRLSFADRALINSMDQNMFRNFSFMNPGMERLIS
Chain of SRPK1 (human) (Q96SB4 whole entry, looked up): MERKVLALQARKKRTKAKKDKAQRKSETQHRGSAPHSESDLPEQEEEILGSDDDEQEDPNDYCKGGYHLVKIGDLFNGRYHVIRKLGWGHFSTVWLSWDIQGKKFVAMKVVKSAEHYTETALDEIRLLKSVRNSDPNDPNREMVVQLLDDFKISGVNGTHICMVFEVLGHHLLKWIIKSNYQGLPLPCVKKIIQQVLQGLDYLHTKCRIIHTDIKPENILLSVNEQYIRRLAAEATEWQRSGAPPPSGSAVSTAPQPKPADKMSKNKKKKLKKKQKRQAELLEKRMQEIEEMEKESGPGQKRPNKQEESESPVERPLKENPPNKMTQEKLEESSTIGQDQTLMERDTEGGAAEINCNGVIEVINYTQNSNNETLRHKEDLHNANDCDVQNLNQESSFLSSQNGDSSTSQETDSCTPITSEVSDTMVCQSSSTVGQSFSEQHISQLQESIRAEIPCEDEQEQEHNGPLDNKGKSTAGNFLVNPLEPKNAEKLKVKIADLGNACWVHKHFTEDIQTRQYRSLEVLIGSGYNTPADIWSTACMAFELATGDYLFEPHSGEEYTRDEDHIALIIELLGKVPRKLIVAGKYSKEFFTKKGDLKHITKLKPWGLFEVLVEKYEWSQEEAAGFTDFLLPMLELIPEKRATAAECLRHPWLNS
Chain of SIK2 (human) (Q9H0K1 whole entry, looked up): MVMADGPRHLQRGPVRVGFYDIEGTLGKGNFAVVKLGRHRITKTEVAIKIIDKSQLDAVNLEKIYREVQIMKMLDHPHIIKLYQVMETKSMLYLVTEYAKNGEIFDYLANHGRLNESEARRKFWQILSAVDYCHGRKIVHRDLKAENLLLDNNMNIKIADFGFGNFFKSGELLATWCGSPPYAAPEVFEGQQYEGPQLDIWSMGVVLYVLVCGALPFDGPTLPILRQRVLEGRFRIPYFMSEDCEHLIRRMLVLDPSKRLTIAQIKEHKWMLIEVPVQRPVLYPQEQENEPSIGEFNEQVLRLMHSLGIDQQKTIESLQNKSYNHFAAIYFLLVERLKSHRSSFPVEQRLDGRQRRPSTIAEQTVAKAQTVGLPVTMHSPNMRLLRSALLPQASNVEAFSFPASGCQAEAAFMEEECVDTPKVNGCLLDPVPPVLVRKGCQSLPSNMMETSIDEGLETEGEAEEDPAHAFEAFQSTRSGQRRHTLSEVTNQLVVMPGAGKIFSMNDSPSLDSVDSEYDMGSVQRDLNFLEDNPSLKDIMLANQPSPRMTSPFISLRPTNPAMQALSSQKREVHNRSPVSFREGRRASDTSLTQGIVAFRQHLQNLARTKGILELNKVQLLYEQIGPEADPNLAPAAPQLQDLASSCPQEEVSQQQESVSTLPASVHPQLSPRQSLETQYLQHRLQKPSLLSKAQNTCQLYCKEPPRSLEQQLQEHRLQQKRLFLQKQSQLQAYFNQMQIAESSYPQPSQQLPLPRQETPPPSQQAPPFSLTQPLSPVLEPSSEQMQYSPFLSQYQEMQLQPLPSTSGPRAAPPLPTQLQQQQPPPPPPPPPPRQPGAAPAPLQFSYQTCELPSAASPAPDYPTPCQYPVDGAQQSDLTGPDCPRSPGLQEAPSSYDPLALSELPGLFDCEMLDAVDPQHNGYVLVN
Chain of MAP2K6 (human) (P52564 whole entry, looked up): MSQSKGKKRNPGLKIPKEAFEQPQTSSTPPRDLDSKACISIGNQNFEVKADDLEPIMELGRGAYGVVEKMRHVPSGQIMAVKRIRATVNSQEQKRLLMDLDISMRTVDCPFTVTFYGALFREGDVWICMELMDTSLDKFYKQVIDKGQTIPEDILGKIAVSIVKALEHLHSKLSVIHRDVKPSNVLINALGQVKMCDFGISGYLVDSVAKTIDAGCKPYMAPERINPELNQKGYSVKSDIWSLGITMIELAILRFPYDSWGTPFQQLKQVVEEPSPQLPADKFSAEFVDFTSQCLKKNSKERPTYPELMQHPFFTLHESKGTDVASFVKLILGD

COc1cc(N2CCC(O)CC2)ccc1Nc1ncc2c(n1)N1CCc3cccc(c31)C(=O)N2C
kinase still bound, per cent of control [1]: 89% | kinase still bound, per cent of control [2]: 100% | kinase still bound, per cent of control [3]: 96% | kinase still bound, per cent of control [4]: 100% | kinase still bound, per cent of control [5]: 74% | kinase still bound, per cent of control [6]: 100% | kinase still bound, per cent of control [7]: 93% | kinase still bound, per cent of control [8]: 78% | kinase still bound, per cent of control [9]: 99% | kinase still bound, per cent of control [10]: 100% | kinase still bound, per cent of control [11]: 100% | kinase still bound, per cent of control [12]: 93% | kinase still bound, per cent of control [13]: 100% | kinase still bound, per cent of control [14]: 75% | kinase still bound, per cent of control [15]: 87% | kinase still bound, per cent of control [16]: 57% | kinase still bound, per cent of control [17]: 100% | kinase still bound, per cent of control [18]: 100% | kinase still bound, per cent of control [19]: 93% | kinase still bound, per cent of control [20]: 91% | kinase still bound, per cent of control [21]: 0.2% | kinase still bound, per cent of control [22]: 92% | kinase still bound, per cent of control [23]: 100% | kinase still bound, per cent of control [24]: 100% | kinase still bound, per cent of control [25]: 97% | kinase still bound, per cent of control [26]: 100% | kinase still bound, per cent of control [27]: 100% | kinase still bound, per cent of control [28]: 94% | kinase still bound, per cent of control [29]: 100% | kinase still bound, per cent of control [30]: 100% | kinase still bound, per cent of control [31]: 100% | kinase still bound, per cent of control [32]: 100% | kinase still bound, per cent of control [33]: 100% | kinase still bound, per cent of control [34]: 100% | kinase still bound, per cent of control [35]: 87% | kinase still bound, per cent of control [36]: 96% | kinase still bound, per cent of control [37]: 90% | kinase still bound, per cent of control [38]: 87% | kinase still bound, per cent of control [39]: 84% | kinase still bound, per cent of control [40]: 100% | kinase still bound, per cent of control [41]: 91% | kinase still bound, per cent of control [42]: 94%

COc1cc(N2CCN(C)CC2)ccc1Nc1ncc2c(n1)N(C)c1ccccc1N(C)C2=O
kinase still bound, per cent of control [1]: 54% | kinase still bound, per cent of control [2]: 100% | kinase still bound, per cent of control [3]: 100% | kinase still bound, per cent of control [4]: 100% | kinase still bound, per cent of control [5]: 100% | kinase still bound, per cent of control [6]: 100% | kinase still bound, per cent of control [7]: 100% | kinase still bound, per cent of control [8]: 100% | kinase still bound, per cent of control [9]: 68% | kinase still bound, per cent of control [10]: 100% | kinase still bound, per cent of control [11]: 100% | kinase still bound, per cent of control [12]: 96% | kinase still bound, per cent of control [13]: 65% | kinase still bound, per cent of control [14]: 100% | kinase still bound, per cent of control [15]: 100% | kinase still bound, per cent of control [16]: 100% | kinase still bound, per cent of control [17]: 89% | kinase still bound, per cent of control [18]: 88% | kinase still bound, per cent of control [19]: 79% | kinase still bound, per cent of control [20]: 100% | kinase still bound, per cent of control [21]: 100% | kinase still bound, per cent of control [22]: 83% | kinase still bound, per cent of control [23]: 100% | kinase still bound, per cent of control [24]: 76% | kinase still bound, per cent of control [25]: 83% | kinase still bound, per cent of control [26]: 97% | kinase still bound, per cent of control [27]: 100% | kinase still bound, per cent of control [28]: 93% | kinase still bound, per cent of control [29]: 100% | kinase still bound, per cent of control [30]: 32% | kinase still bound, per cent of control [31]: 100% | kinase still bound, per cent of control [32]: 100% | kinase still bound, per cent of control [33]: 100% | kinase still bound, per cent of control [34]: 100% | kinase still bound, per cent of control [35]: 88% | kinase still bound, per cent of control [36]: 95% | kinase still bound, per cent of control [37]: 95% | kinase still bound, per cent of control [38]: 75% | kinase still bound, per cent of control [39]: 100% | kinase still bound, per cent of control [40]: 26% | kinase still bound, per cent of control [41]: 60% | kinase still bound, per cent of control [42]: 97%
